Key:
[1] = molecular target: T1, Calcium/calmodulin-dependent protein kinase type IV (Homo sapiens) (UniProt Q16566); experiment: Selectivity interaction (Ambit KINOMEscan and KiNATiv profiling in Jurkat cells) EUB0000090b CAMK4; assay type: cell-based; conditions: at 1 µM
T1 sequence (whole entry): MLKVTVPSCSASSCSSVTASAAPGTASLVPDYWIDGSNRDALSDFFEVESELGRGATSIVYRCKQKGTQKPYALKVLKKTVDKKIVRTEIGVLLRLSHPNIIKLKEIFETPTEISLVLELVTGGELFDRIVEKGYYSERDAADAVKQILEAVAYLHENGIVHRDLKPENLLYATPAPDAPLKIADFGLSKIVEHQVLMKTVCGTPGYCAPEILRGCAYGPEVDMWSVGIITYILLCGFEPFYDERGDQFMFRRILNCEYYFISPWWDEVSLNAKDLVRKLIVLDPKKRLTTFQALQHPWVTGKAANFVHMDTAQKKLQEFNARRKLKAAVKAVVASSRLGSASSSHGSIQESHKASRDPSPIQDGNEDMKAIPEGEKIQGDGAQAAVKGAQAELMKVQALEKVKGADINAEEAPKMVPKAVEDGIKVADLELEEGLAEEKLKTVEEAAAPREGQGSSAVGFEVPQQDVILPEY

[2] = molecular target: Death-associated protein kinase 1 (Homo sapiens, UniProt P53355); experiment: Selectivity interaction (KinomeScan (DiscoverX)) EUB0000655a DAPK1; conditions: at 10 µM
Ephrin type-A receptor 4 = Ephrin type-A receptor 4 (Homo sapiens, UniProt P54764); experiment: Selectivity interaction (KinomeScan (DiscoverX)) EUB0001079a EPHA4; conditions: at 1 µM
D(3) dopamine receptor = D(3) dopamine receptor (Homo sapiens, UniProt P35462); experiment: Selectivity interaction (GPCR panel (PDSP screen)) EUB0001079a DRD3; conditions: at 10 µM
[3] = molecular target: Hepatocyte growth factor receptor (Homo sapiens, UniProt P08581); experiment: (§1) Selectivity interaction (KinomeScan (DiscoverX)) EUB0000045b MET
[4] = system: Hepatocyte growth factor receptor (Homo sapiens), P08581 [Y1235D]; experiment: as §1
[5] = system: Hepatocyte growth factor receptor (Homo sapiens), P08581 [M1250T]; experiment: as §1
[6] = molecular target: Activin receptor type-2A (Homo sapiens) (UniProt P27037); experiment: Selectivity interaction (KinomeScan (DiscoverX)) EUB0000595a ACVR2A; conditions: at 10 µM
[7] = molecular target: T2, Serine/threonine-protein kinase D3 (Homo sapiens) (UniProt O94806); experiment: Selectivity interaction (ActivX KiNativ screen (kinase selectivity in THP-1 cell lysates)) EUB0000639a PRKD3; assay type: subcellular; conditions: lysate, at 0.04 µM
T2 sequence (whole entry): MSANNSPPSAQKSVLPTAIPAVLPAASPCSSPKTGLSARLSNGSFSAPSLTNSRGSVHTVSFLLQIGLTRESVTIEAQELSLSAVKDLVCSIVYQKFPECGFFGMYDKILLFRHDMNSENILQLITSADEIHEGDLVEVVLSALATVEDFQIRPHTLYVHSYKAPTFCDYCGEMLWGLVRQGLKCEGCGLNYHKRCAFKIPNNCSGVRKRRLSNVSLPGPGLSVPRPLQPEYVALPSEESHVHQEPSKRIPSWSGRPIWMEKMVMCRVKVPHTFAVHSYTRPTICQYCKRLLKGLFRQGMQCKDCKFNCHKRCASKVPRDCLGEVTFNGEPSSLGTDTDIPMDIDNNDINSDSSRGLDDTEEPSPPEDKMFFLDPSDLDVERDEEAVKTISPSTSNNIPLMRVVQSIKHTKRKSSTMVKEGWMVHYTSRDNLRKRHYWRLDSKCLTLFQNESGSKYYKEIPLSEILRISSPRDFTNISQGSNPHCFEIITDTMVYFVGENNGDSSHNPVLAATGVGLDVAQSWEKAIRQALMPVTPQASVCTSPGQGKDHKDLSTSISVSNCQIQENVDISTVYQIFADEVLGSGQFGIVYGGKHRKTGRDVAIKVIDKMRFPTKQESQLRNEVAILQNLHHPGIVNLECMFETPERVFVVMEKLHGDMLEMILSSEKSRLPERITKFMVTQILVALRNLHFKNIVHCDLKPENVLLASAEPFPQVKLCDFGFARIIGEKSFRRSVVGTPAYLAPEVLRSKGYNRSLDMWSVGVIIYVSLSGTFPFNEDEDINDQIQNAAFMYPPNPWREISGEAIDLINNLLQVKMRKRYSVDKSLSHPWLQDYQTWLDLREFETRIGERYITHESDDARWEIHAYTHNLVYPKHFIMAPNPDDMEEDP

[8] = molecular target: Serine/threonine-protein kinase N1 (Homo sapiens, UniProt Q16512); experiment: Selectivity interaction (ActivX KiNativ screen (kinase selectivity in THP-1 cell lysates)) EUB0000639a PKN1; assay type: subcellular; conditions: lysate
[9] = molecular target: Receptor-type tyrosine-protein kinase FLT3 (Homo sapiens) (UniProt P36888); experiment: Selectivity interaction (ProQinase) EUB0000171b FLT3; conditions: at 5 µM
[10] = molecular target: Tyrosine-protein kinase ABL2 (Homo sapiens, UniProt P42684); experiment: Selectivity interaction (ProQinase) EUB0000171b ABL2
[11] = molecular target: Cyclin-dependent kinase 3 (Homo sapiens) (UniProt Q00526); experiment: Selectivity interaction (KinomeScan (DiscoverX)) EUB0000092b CDK3; conditions: at 10 µM
[12] = molecular target: Myosin light chain kinase, smooth muscle (Homo sapiens, UniProt Q15746); experiment: Selectivity interaction (KinomeScan (DiscoverX)) EUB0000092b MYLK; conditions: at 10 µM
[13] = molecular target: Histone acetyltransferase KAT2A (Homo sapiens) (UniProt Q92830); experiment: Selectivity interaction (Human bromodomain panel (DSF assay)) EUB0000233b KAT2A

Chain of Serine/threonine-protein kinase N1 (Q16512 2-942 limits assumed): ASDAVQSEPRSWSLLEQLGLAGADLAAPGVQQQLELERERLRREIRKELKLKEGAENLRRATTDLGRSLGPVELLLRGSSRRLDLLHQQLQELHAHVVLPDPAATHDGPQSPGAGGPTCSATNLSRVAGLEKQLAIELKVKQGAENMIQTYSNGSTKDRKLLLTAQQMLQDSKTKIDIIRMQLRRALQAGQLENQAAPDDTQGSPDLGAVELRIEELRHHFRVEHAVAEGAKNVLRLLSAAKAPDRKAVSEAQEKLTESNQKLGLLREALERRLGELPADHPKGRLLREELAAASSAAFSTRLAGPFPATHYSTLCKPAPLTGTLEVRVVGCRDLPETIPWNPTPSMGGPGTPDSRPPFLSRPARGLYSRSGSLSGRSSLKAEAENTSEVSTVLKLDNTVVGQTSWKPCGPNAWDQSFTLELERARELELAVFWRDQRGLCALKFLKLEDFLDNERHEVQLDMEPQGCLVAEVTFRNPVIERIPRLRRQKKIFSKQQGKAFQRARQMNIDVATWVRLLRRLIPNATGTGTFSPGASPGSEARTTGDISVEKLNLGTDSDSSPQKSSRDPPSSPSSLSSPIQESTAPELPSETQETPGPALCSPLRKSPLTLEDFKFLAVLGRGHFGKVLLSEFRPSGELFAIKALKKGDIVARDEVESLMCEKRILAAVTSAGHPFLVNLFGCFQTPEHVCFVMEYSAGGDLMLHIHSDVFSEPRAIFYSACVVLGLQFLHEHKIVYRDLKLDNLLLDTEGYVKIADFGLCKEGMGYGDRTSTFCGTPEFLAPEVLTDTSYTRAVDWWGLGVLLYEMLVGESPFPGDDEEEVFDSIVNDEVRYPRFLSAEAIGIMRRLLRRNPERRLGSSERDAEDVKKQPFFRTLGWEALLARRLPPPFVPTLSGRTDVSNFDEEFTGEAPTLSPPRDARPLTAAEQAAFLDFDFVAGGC
Chain of Tyrosine-protein kinase ABL2 (P42684 whole entry): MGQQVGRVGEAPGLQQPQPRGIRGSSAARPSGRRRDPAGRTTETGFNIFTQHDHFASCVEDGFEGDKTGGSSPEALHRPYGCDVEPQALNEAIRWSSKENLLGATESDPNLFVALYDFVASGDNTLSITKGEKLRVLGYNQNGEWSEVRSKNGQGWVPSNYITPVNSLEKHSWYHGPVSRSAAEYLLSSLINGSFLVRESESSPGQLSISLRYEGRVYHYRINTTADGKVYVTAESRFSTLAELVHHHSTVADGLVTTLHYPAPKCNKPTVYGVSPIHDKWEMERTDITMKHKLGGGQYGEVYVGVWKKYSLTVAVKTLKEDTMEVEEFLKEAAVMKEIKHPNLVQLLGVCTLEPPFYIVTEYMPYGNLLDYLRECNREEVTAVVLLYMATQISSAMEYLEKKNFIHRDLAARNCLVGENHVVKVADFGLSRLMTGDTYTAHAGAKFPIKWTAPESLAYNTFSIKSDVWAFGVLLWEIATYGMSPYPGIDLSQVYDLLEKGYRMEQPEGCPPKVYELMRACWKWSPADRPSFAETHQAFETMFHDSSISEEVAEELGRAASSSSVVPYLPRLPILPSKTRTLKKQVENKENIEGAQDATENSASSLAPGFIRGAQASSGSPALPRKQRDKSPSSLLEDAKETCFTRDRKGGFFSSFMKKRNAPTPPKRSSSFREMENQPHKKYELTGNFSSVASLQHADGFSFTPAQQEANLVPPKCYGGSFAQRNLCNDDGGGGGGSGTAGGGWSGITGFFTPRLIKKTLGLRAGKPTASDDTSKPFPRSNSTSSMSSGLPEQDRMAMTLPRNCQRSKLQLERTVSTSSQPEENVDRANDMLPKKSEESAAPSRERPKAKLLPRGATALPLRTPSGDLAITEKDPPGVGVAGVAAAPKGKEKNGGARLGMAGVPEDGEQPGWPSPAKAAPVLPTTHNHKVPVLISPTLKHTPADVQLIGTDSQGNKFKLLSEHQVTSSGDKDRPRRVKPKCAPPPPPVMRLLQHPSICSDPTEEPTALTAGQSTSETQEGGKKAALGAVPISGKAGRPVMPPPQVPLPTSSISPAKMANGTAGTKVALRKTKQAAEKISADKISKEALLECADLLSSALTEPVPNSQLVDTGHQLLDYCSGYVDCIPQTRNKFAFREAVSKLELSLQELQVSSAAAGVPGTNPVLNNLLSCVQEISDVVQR
Chain of Hepatocyte growth factor receptor (P08581 whole entry): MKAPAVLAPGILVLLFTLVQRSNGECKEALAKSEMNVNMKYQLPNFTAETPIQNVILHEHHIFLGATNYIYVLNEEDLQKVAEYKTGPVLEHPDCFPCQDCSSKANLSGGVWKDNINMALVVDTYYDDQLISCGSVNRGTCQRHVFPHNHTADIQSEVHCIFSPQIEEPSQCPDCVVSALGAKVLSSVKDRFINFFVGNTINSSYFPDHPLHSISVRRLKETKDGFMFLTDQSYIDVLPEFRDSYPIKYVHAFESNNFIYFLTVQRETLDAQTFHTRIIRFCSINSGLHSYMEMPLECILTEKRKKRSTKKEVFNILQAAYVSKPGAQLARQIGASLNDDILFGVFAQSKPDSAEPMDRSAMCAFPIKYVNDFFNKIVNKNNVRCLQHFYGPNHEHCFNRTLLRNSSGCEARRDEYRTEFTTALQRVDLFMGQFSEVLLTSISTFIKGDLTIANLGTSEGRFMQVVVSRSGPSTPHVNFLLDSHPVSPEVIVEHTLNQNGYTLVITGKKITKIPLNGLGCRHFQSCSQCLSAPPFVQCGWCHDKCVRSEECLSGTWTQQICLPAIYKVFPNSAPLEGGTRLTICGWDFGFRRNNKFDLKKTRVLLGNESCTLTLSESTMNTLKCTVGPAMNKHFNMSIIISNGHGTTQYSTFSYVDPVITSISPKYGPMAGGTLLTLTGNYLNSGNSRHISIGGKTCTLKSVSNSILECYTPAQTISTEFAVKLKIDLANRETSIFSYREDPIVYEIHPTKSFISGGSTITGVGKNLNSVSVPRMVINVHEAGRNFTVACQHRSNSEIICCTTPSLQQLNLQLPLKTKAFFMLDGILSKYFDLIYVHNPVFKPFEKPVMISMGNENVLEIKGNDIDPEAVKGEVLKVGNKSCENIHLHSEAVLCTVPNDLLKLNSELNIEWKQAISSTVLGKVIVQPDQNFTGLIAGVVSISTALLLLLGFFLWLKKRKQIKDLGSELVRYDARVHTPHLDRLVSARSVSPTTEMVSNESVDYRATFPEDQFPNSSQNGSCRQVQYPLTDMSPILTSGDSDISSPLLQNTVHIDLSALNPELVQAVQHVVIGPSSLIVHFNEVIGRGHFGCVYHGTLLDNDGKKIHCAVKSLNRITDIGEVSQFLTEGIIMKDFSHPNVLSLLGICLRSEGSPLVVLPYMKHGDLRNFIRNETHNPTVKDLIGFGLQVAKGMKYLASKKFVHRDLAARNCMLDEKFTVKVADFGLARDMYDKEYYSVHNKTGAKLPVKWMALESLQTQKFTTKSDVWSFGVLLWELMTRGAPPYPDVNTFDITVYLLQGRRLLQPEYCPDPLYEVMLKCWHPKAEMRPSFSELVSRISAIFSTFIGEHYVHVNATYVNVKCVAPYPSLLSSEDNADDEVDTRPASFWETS
Chain of Hepatocyte growth factor receptor (Homo sapiens), P08581 [Y1235D] (P08581 whole entry Y1235D): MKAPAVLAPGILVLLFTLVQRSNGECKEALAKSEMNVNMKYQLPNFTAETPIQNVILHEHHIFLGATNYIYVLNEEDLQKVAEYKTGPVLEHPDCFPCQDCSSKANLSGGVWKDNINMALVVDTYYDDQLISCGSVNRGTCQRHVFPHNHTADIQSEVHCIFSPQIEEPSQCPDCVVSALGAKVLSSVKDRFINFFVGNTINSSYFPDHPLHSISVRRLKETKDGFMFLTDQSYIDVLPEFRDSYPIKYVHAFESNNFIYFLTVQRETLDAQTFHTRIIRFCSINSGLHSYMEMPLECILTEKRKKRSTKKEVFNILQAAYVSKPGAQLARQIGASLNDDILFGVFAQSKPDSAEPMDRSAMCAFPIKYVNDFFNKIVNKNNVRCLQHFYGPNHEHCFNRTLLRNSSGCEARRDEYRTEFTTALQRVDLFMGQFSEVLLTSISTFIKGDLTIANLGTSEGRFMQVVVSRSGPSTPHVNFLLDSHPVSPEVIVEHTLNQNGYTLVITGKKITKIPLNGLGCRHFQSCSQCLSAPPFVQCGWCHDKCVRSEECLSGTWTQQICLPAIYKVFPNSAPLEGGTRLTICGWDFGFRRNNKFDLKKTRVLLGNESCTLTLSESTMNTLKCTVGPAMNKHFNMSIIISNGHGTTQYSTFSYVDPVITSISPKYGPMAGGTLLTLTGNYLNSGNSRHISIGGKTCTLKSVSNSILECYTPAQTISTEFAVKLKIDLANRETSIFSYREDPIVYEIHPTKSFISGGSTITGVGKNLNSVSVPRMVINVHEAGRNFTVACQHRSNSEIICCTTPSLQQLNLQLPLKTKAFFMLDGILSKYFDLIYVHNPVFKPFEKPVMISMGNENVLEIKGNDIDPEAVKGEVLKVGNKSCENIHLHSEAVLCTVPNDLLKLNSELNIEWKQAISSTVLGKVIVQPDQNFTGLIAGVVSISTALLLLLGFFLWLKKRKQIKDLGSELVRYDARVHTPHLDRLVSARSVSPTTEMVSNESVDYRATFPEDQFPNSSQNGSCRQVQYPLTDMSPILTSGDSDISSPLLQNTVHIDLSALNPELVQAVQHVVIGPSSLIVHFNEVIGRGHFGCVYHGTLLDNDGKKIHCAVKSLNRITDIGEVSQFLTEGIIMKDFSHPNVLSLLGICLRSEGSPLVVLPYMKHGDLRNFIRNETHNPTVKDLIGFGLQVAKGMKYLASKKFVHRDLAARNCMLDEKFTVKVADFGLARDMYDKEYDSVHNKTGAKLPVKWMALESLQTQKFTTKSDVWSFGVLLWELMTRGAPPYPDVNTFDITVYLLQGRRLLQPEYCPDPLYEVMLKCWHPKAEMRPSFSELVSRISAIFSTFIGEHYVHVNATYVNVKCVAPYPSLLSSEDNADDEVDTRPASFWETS

CN(C)C/C=C/C(=O)Nc1ccc(C(=O)N2CCCC(Nc3ncc(Cl)c(-c4c[nH]c5ccccc45)n3)C2)cc1 (stereo not drawn)
% of control [1]: 69%

CN(C)CCOc1ccc(-c2nc(-c3ccncc3)c(-c3ccc4c(c3)CC/C4=N\O)[nH]2)cc1
% of control [2]: 99%

Nc1cnc(N2CCc3cc(S(=O)(=O)Nc4c(F)cc(Cl)cc4F)cc(N4CCCC4=O)c32)nc1 [TP-020n]
% of control (Ephrin type-A receptor 4): 100%
% of inhibition (D(3) dopamine receptor): 7.88%

C=CC(=O)Nc1cc(-n2c(=O)ccc3cnc4ccc(-c5ccc(NS(C)(=O)=O)cc5)cc4c32)ccc1C
% of control ([3]; at 1 µM): 100%
% of control ([3]; at 10 µM): 64%
% of control ([4]; at 1 µM): 95%
% of control ([4]; at 10 µM): 100%
% of control ([5]; at 1 µM): 80%
% of control ([5]; at 10 µM): 90%

COCC(=O)NC/C=C/c1ccc2ncnc(Nc3ccc(Oc4ccc(C)nc4)c(C)c3)c2c1 [CP-724714]
% of control [6]: 100%

CC[C@@H]1[C@H](F)C(=O)N[C@@H]1COc1nccc2cc(C(N)=O)c(OC)cc12 [ZIMLOVISERTIB]
% of inhibition [7]: 3.3%
% of inhibition ([8]; at 0.01 µM): 8.7%
% of inhibition ([8]; at 0.04 µM): 3.4%
% of inhibition ([8]; at 0.2 µM): 5%
% of inhibition ([8]; at 1 µM): 5.9%
% of inhibition ([8]; at 5 µM): 34.9%

C=CC(=O)Nc1cccc(C(=O)Nc2ccc(Nc3cc(-c4[nH]c(SC)nc4C)ccn3)cc2)c1
% of control [9]: 62%
% of control ([10]; at 1 µM): 74%
% of control ([10]; at 5 µM): 84%

CCC(=O)N1CCN(c2ccc(-n3c(=O)ccc4cnc5ccc(-c6cnc7ccccc7c6)cc5c43)cc2C(F)(F)F)CC1
% of control [11]: 100%
% of control [12]: 94%

CN(C)CCCOc1ccc(-c2cc(NCCCn3cccn3)nc(S(C)(=O)=O)n2)cc1
dTM [13]: < 2 K

Source: ChEMBL document CHEMBL5465560, “Selectivity Literature for EUbOPEN Chemogenomic Library” (2024)
